For orientation: EC50 means the concentration needed to bring the measured effect to its halfway point. A word on the IC50: it is the concentration that inhibits the measured activity by half.

The text below walks through data of patent publication US8039668B2, “Naphthalene-based inhibitors of anti-apoptotic proteins” (Burnham Institute for Medical Research, priority 2008, dated 2011).

The subject of series [1] is PC3ML cells. As to the kind of experiment: Cell viability, ATP-LITE assay. The format is cell-based, human. To be noted: Homo sapiens, PC3-ML. The procedure:
(§1) The activity of the compounds against human cancer cell lines (PC3ML, H460, H1299, RS11846) were assessed by using the ATP-LITE assay (PerkinElmer). All cells were seeded in either F12 or RPMI1640 medium with 5 mM L-glutamine supplemented with 5% fetal bovine serum (Mediatech Inc.), penicillin and streptomycin (Omega). For maintenance, cells were cultured in 5% FBS. Cells plated into 96 well plates at varying initial densities depending on doubling time. H460 and H1299 plated at 2000 cells/well, A549 and PC3 at 3000 cells/well, and RS118456S at 10,000 cells/well. Compounds were diluted to final concentrations with 0.1% DMSO. Prior to dispensing compounds onto cells, fresh 5% media was placed into wells. Administration of compounds occurred 24 hours after seeding into the fresh media. Cell viability was evaluated using ATP-LITE reagent (PerkinElmer) after 72 hours of treatment. Data were normalized to the DMSO control-treated cells using Prism version 5.01 (Graphpad Software).

In series [2] the test system is H1299 cell line. The series can be described thus: Cell viability, ATP-LITE assay. Type of series: cell-based, human. The conditions noted are these: Homo sapiens. The procedure: as §1
For series [3], the system named is human lymphoma RS11846 cell line. The series can be described thus: Apoptosis, Annexin V-FITC and propidium iodide assay. Type of series: cell-based. To be noted: for EC50: Homo sapiens.
In series [4] the test system is H460 human lung cell line. The series can be described thus: Cell viability, ATP-LITE assay. The format is cell-based. The conditions noted are these: Homo sapiens. The procedure: as §1
Series [5] has as its system B6Bcl-2 transgenic mice. The procedure: Transgenic mice expressing BCL-2 have been described as the B6 line. The BCL-2 transgene res a minigene version of a t(14;18) translocation in which the human BCL-2 gene is fused with the immunoglobulin heavy-chain (IgH) locus and associated IgH enhancer. The transgene was propagated on the Balb/c background.
After 24 hours, B6BCL2 mice were sacrificed by intraperitoneal injection of lethal dose of Avertin. Spleen was removed and weighed. […] Spleen tissue was fixed in z-FIX for 3 days and rinsed in PBS, and saved for histological analysis of spleen (H&E staining and TUNEL assay).

Series [6] has as its target T1, BCL-XL (Homo sapiens, UniProt Q07817). The series can be described thus: 1D 1H-NMR binding assay. For 1D ^1H-NMR Binding Assay (BCL-XL): key: +++: Very Active; ++: Active; +: Mild; −: Weak. To be noted: for 1D ^1H-NMR Binding Assay (BCL-XL): Table 9. The procedure:
By observing the aliphatic region of the spectra, binding could be readily detected due to chemical shift changes in active site methyl groups of Ile, Leu, Thr, Val or Ala (region between −0.8 and 0.3 ppm). All experiments were performed with a 600 MHz spectrometer Bruker Avance 600 equipped with four rf channels and z-axis pulse-field gradients.
Target sequence in this assay (Q07817 whole entry): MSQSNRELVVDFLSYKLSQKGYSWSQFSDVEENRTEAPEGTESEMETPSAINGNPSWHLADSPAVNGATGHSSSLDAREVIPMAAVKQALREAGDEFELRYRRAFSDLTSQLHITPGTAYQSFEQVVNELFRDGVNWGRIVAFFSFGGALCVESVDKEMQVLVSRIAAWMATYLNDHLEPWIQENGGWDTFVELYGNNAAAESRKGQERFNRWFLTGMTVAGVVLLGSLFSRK

Series [7] has as its system RS11846 cell line. As to the kind of experiment: Cell viability, ATP-LITE assay. Type of series: cell-based. To be noted: Homo sapiens, read-out: RS11846 EC50 (ATP-LITE assay). The procedure:
as §1

The target of series [8] is T1, BCL-XL. As to the kind of experiment: Competitive fluorescence polarization assay (FPA), Bak BH3 peptide. The conditions noted are these: Table 9. The arrangement: 100 nM GST-BCL-XL ΔTM protein. Type of series: binding. The procedure:
For competitive binding assays, 100 nM GST-BCL-XL ΔTM protein was preincubated with the tested compound at varying concentrations in 47.5 μL PBS (pH=7.4) in 96-well black plates at room temperature for 10 min, then 2.5 μL of 100 nM FITC-labeled Bak BH3 peptide was added to produce a final volume of 50 μL. The wild-type and mutant Bak BH3 peptides were included in each assay plate as positive and negative controls, respectively. […] IC50 was determined by fitting the experimental data to a sigmoidal dose-response nonlinear regression model (SigmaPlot 10.0.1, Systat Software, Inc., San Jose, Calif., USA). Data reported are mean of three independent experiments±standard error (SE). […] Fluorescence polarization was measured after 10 min.
Target sequence in this assay (Q07817 1-209 limits assumed): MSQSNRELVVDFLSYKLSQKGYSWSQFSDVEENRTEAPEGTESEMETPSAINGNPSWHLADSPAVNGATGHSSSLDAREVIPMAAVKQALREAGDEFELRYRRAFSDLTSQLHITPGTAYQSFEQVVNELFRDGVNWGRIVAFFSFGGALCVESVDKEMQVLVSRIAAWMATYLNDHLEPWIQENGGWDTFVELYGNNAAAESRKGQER

Setting [9] is: NCI-H1299, Table 9, read-out: H1299 EC50.
Setting [10] is: Table 9, read-out: RS11846 EC50 (Annexin V- and propidium iodide assay).
Setting [11] is: NCI-H460, Table 9, read-out: H460 EC50.
The mark [12] stands for this setting: NCI-H1299, read-out: H1299 EC50.
Setting [13] is: read-out: RS11846 EC50 (Annexin V- and propidium iodide assay), Table 9.

Like-named read-outs stand apart in the source and are kept apart here.

Turning to `Cc1cc2cc(O)c(O)cc2c(O)c1-c1c(C)cc2cc(O)c(O)cc2c1O` [Compound 13, 3,3′-dimethyl-2,2′-binaphthyl-1,1′,6,6′,7,7′-hexaol], the EC50 in series [1] (ATP-LITE assay, read-out: EC50 PC3ML) was over 10 µM; in series [2] (NCI-H1299, ATP-LITE assay, read-out: EC50 H1299), 13.4 µM; in series [3] (Annexin V-FITC and propidium iodide assay, read-out: EC50 RS11846), 24.5 µM; in series [4] (NCI-H460, ATP-LITE assay, read-out: EC50 H460), over 10 µM. In addition, the “induction of apoptosis of the RS11846 cell line” value in series [3] (in words) is recorded as “weak or no apoptosis”. In series [5] (Bcl-2 transgenic mouse, single ip injection 72 μmol/kg), this compound came in with a Tox of 0. In addition, the “activity in transgenic mice model” value in series [5] (single ip 72 μmol/kg) is on record as “no activity”. For the same compound, in series [6] (Table 4, BCL-XL 25 μM, compound 200 μM), the “1D-^1H NMR” value is recorded as “−”.
As to `Cc1cc2cc(O)c(O)cc2c(O)c1-c1c(C)cc2cc(O)c(O)cc2c1O` [Compound II, 3,3′-dimethyl-2,2′-binaphthyl-1,1′,6,6′ 7,7′-hexaol], the EC50 turned out to be 12.6 µM in series [1] (Table 9, read-out: PC3ML EC50); 13.4 µM in series [2] (setting [9]); 24.7 µM in series [3] (setting [10]); 10.1 µM in series [4] (setting [11]); 10 µM in series [7] (Table 9). Further, the “1D ^1H-NMR Binding Assay (BCL-XL)” value in series [6] is “+”.
Consider `Cc1cc2c(C(=O)C(C)C)c(O)c(O)cc2c(O)c1-c1c(C)cc2c(C(=O)C(C)C)c(O)c(O)cc2c1O` [Compound III, 1,1′-(1,1′,6,6′,7,7′-hexahydroxy-3,3′-dimethyl-2,2′-binaphthyl-5,5′-diyl)bis(2-methylpropan-1-one)], for which the EC50 is 3.9 µM in series [1] (read-out: PC3ML EC50, Table 9); 4.8 µM in series [2] (setting [12]); 14.7 µM in series [3] (setting [13]); 1.5 µM in series [4] (NCI-H460, read-out: H460 EC50); 15 µM in series [7]. For the same compound, the “1D ^1H-NMR Binding Assay (BCL-XL)” value in series [6] is given as “++”.
Turning to `Cc1cc2c(C(=O)CC(C)C)c(O)c(O)cc2c(O)c1-c1c(C)cc2c(C(=O)CC(C)C)c(O)c(O)cc2c1O` [Compound IV, 1,1′-(1,1′,6,6′,7,7′-hexahydroxy-3,3′-dimethyl-2,2′-binaphthyl-5,5′-diyl)bis(3-methylbutan-1-one)], the EC50 in series [1] (Table 9, read-out: PC3ML EC50) was 7.5 µM; in series [2] (setting [9]), 3.6 µM; in series [3] (setting [10]) it was 13.7 µM; in series [4] (setting [11]), 1.1 µM; in series [7] (Table 9), 10 µM. The IC50 in series [8] (read-out: FPA IC50 (BCL-XL)) was 1.3 µM. Besides, the “1D ^1H-NMR Binding Assay (BCL-XL)” value in series [6] is recorded as “+”.
As to `Cc1cc2c(C(=O)c3ccc(-c4ccccc4)cc3)c(O)c(O)cc2c(O)c1-c1c(C)cc2c(C(=O)c3ccc(-c4ccccc4)cc3)c(O)c(O)cc2c1O` [Compound IX, (1,1′,6,6′,7,7′-hexahydroxy-3,3′-dimethyl-2,2′-binaphthyl-5,5′-diyl)bis(biphenyl-4-ylmethanone)], the half-maximal effective concentration (EC50) in series [1] (read-out: PC3ML EC50, Table 9) came to 7.7 µM; in series [2] (setting [12]), 9.6 µM; in series [3] (setting [13]) it was 25.9 µM; in series [4] (NCI-H460, read-out: H460 EC50) it was 8.2 µM; in series [7], 2.8 µM. In addition, the “1D ^1H-NMR Binding Assay (BCL-XL)” value in series [6] is “+”.
In the case of `CCCCC(CC)CC(=O)c1c(O)c(O)cc2c(O)c(-c3c(C)cc4c(C(=O)CC(CC)CCCC)c(O)c(O)cc4c3O)c(C)cc12` (stereo not drawn) [Compound V, 1,1′-(1,1′,6,6′,7,7′-hexahydroxy-3,3′-dimethyl-2,2′-binaphthyl-5,5′-diyl)bis(3-ethylheptan-1-one)], the concentration giving a half-maximal response (EC50) in series [1] (Table 9, read-out: PC3ML EC50) was found to be 3 µM; in series [2] (setting [9]), 3 µM; in series [3] (setting [10]), 6.6 µM; in series [4] (setting [11]), 1.5 µM; in series [7] (Table 9), 2.8 µM. Also, the IC50 in series [8] (read-out: FPA IC50 (BCL-XL)) was 1.29 µM. In addition, the “1D ^1H-NMR Binding Assay (BCL-XL)” value in series [6] is given as “+”.
Regarding `Cc1cc2c(C(=O)c3ccccc3)c(O)c(O)cc2c(O)c1-c1c(C)cc2c(C(=O)c3ccccc3)c(O)c(O)cc2c1O` [Compound VII, (1,1′,6,6′,7,7′-hexahydroxy-3,3′-dimethyl-2,2′-binaphthyl-5,5′-diyl)bis(phenylmethanone)], the EC50 in series [1] (Table 9, read-out: PC3ML EC50) was determined as 3.6 µM; in series [2] (setting [9]), 4.2 µM; in series [3] (setting [10]), 18.3 µM. In addition, the IC50 in series [8] (read-out: FPA IC50 (BCL-XL)) turned out to be 2.9 µM. Further, the “1D ^1H-NMR Binding Assay (BCL-XL)” value in series [6] was “+”.
As to `Cc1cc2c(C(=O)c3ccc(C(C)(C)C)cc3)c(O)c(O)cc2c(O)c1-c1c(C)cc2c(C(=O)c3ccc(C(C)(C)C)cc3)c(O)c(O)cc2c1O` [Compound X, (1,1′,6,6′,7,7′-hexahydroxy-3,3′-dimethyl-2,2′-binaphthyl-5,5′-diyl)bis((4-tert-butylphenyl)methanone)], the EC50 in series [1] (Table 9, read-out: PC3ML EC50) was 2.8 µM; in series [2] (setting [9]) it was 4.8 µM; in series [3] (setting [10]), 13.4 µM; in series [4] (setting [11]), 3.6 µM; in series [7] (Table 9) it was 2.3 µM. Also, the “1D ^1H-NMR Binding Assay (BCL-XL)” value in series [6] was “−”.
For the compound `Cc1cc2c(C(=O)c3ccc(C(F)(F)F)cc3)c(O)c(O)cc2c(O)c1-c1c(C)cc2c(C(=O)c3ccc(C(F)(F)F)cc3)c(O)c(O)cc2c1O` [Compound XI, (1,1′,6,6′,7,7′-hexahydroxy-3,3′-dimethyl-2,2′-binaphthyl-5,5′-diyl)bis((4-(trifluoromethyl)phenyl)methanone)], the EC50 in series [1] (Table 9, read-out: PC3ML EC50) is 2.9 µM; in series [2] (setting [9]), 2 µM; in series [3] (setting [10]), 3 to 5.5 µM; in series [4] (setting [11]), 2.2 µM; in series [7] (Table 9), 2.5 µM. Besides, in series [8] (read-out: FPA IC50 (BCL-XL)), the IC50 was determined as 0.25 µM. Besides, the “1D ^1H-NMR Binding Assay (BCL-XL)” value in series [6] is “+”.
In the case of `Cc1cc2c(C(=O)Cc3cccc(Br)c3)c(O)c(O)cc2c(O)c1-c1c(C)cc2c(C(=O)Cc3cccc(Br)c3)c(O)c(O)cc2c1O` [Compound XIII, 1,1′-(1,1′,6,6′,7,7′-hexahydroxy-3,3′-dimethyl-2,2′-binaphthyl-5,5′-diyl)bis(2-(3-bromophenyl)ethanone)], the 50% effective concentration (EC50) in series [1] (read-out: PC3ML EC50, Table 9) came to 3.1 µM; in series [2] (setting [12]), 2.6 µM; in series [3] (setting [13]), 5.3 µM; in series [4] (NCI-H460, read-out: H460 EC50), 2.7 µM; in series [7], 8.4 µM. In series [8] (FPA IC50 (BCL-XL)), this compound gave an IC50 of 1.31 µM. The “1D ^1H-NMR Binding Assay (BCL-XL)” value in series [6] is “++”.
Consider `Cc1cc2c(C(=O)Cc3ccc(OC(F)(F)F)cc3)c(O)c(O)cc2c(O)c1-c1c(C)cc2c(C(=O)Cc3ccc(OC(F)(F)F)cc3)c(O)c(O)cc2c1O` [Compound XIV, 1,1′-(1,1′,6,6′,7,7′-hexahydroxy-3,3′-dimethyl-2,2′-binaphthyl-5,5′-diyl)bis(2-(4-(trifluoromethoxy)phenyl)ethanone)], for which the concentration for a half-maximal effect (EC50) came out at 1.9 µM in series [1] (read-out: PC3ML EC50, Table 9); 3.9 µM in series [2] (setting [12]); 6.2 µM in series [3] (setting [13]); 3.3 µM in series [4] (NCI-H460, read-out: H460 EC50); 1.8 µM in series [7]. The compound further had an IC50 in series [8] (FPA IC50 (BCL-XL)) of 1.3 µM. In series [6], the “1D ^1H-NMR Binding Assay (BCL-XL)” value is listed as “++”.
On to `Cc1cc2c(C(=O)CC3CCCCC3)c(O)c(O)cc2c(O)c1-c1c(C)cc2c(C(=O)CC3CCCCC3)c(O)c(O)cc2c1O` [Compound XV, 1,1′-(1,1′,6,6′,7,7′-hexahydroxy-3,3′-dimethyl-2,2′-binaphthyl-5,5′-diyl)bis(2-cyclohexylethanone)], for which the EC50 in series [1] (Table 9, read-out: PC3ML EC50) was found to be 1.9 µM; in series [2] (setting [9]), 2.1 µM; in series [3] (setting [10]) it was 5.2 µM; in series [4] (setting [11]), 1.8 µM; in series [7] (Table 9), 2 µM. Moreover, in series [6], the “1D ^1H-NMR Binding Assay (BCL-XL)” value was “+”.
